Experiments:
[1] = Particle size of compounds milled with PLURONIC F127 as MPP (dynamic light scattering); format: physicochemical; settings: formulated as MPP, milled with PLURONIC F127, DPBS buffered
From the text: The compounds of the present invention synthesized in accordance with the preceding Examples were formulated as mucus penetrating particles (MPP). Specifically, Compound 4 of Example 1, Compound 9 of Example 2, and Compound 13 of Example 3 were each milled in the presence of PLURONIC F127 (F127) to determine whether F127 1) aids particle size reduction to several hundreds of nanometers and 2) physically (non-covalently) coats the surface of generated nanoparticles with a mucoinert coating that would minimize particle interactions with mucus constituents and prevent mucus adhesion.
A milling procedure was employed in which an aqueous dispersion containing coarse drug particles and PLURONIC F127 (F127) was milled with grinding medium until particle size was reduced below 400 nm as measured by dynamic light scattering. Table 4 lists the size of particles and polydispersity index (a measure of the width of the particle size distribution) generated using this technique. In this example suspensions were buffered using DPBS (Dulbecco's Phosphate-Buffered Saline) which yields a suspension that is both isotonic and has a physiologically relevant pH.

[2] = Draize ocular irritation assessment; format: in vivo; settings: MPP 0.5%, 50 μL topical BID 5 days, Dutch-belted rabbits
From the text: Dutch-belted rabbits were used in these studies.

COc1cc2c(Oc3ccc4[nH]c(C)cc4c3F)ncnc2cc1OCCCN1CCC2(CC1)COC2 [Compound 4, 7-(3-(4-(4-fluoro-2-methyl-1H-indol-5-yloxy)-6-methoxyquinazolin-7-yloxy)propyl)-2-oxa-7-azaspiro[3.5]nonane]
Particle Size [1]: 270 nm | Draize-Ocular Irritation [2]: no irritation was seen
